Laboratory results taken from publication PMC10027976, “Phylogeny-guided genome mining of roseocin family lantibiotics to generate improved variants of roseocin” (AMB Express, 2023).
Where no end group is shown, it is not given here.

Tests used:
[1] = system: MSSA ATCC 25923; assay: MIC by micro broth-dilution method; assay type: cell-based, Staphylococcus aureus; details: for MIC against MSSA ATCC 25923: micro broth-dilution, Mueller Hinton Broth, 2 × 10^5 CFU/mL mixed 1:1 with lantibiotic, BSA-treated 96-well plates, overnight 37 °C, lowest concentration with no visible growth, Rosα (variant) with wild-type Rosβ
Method: (§1) The minimum inhibitory concentration of wild-type roseocin and its variants was determined with micro broth-dilution method. Sterile 96-well microtiter plates were treated with 200 µL of 1% (w/v) bovine serum albumin (BSA) in 1 × phosphate-buffered saline (PBS) solution at 37 °C for 30 min. After this, wells were washed with 1 × PBS to remove excess BSA (Ellis et al. [2020]). Log phase culture was diluted with Mueller Hinton Broth (MHB) to obtain 2 × 10^5 CFU/mL. The bacterial suspension and the lantibiotic were added to 96-well microplates at a ratio of 1:1. The microplates were incubated overnight at 37 °C. The lowest concentration at which no visible growth was observed, was considered MIC.

[2] = system: M. luteus ATCC 10240; assay: MIC by micro broth-dilution method; assay type: cell-based, Micrococcus luteus; details: for MIC against M. luteus ATCC 10240: micro broth-dilution, Mueller Hinton Broth, 2 × 10^5 CFU/mL mixed 1:1 with lantibiotic, BSA-treated 96-well plates, overnight 37 °C, lowest concentration with no visible growth, Rosα (variant) with wild-type Rosβ
Method: as §1

[3] = system: M. luteus ATCC 10240 and methicillin-sensitive Staphylococcus aureus (MSSA) ATCC 25923; assay: MIC comparison of variants with wild-type roseocin, both strains; assay type: cell-based, Micrococcus luteus; Staphylococcus aureus; details: M. luteus ATCC 10240 and MSSA ATCC 25923, in combination with wild-type Rosβ
Method: as §1

[4] = system: M. luteus ATCC 10240; assay: Agar diffusion assay in synergism with Rosβ; assay type: cell-based, Micrococcus luteus; details: nutrient agar, leader removed with proteinase K, 4 μg, 2 μg and 1 μg with equal amount of Rosβ
Method: Overnight 10 mL culture of Micrococcus luteus (ATCC 10240), grown in nutrient broth, was diluted to 0.1 OD600 in the fresh 5 mL nutrient broth. The 1 μL/mL of the culture was used for the inoculation in nutrient agar before plating. The culture was added in bearable to touch media. The nutrient agar culture plates were used for checking the activity of Rosα variant peptides and wild type as a positive control, in synergism with Rosβ in a 1:1 ratio.
Alpha variant precursor peptides were cleaved with proteinase K to obtain their bioactive form, as described earlier (Singh et al. 2020) and were spotted with Rosβ in nutrient agar culture plate, in a dose-dependent manner i.e 1 µg, 2 µg, 4 µg (each).

[5] = compared with wild-type Rosα, in combination with wild-type Rosβ

Row | Substance | MIC against MSSA ATCC 25923 [1] | MIC against M. luteus ATCC 10240 [2] | Change of MIC / inhibitory activity relative to wild-type roseocin (in words) [3] | Fold change of MIC against M. luteus ATCC 10240 relative to wild-type [2, 5] | Change of MIC / inhibitory activity relative to wild-type roseocin (in words) ([3]; listed as RosαL8W) | Fold change of MIC against MSSA ATCC 25923 relative to wild-type [1, 5] | Change of MIC / inhibitory activity relative to wild-type roseocin (in words) ([3]; listed as RosαL8F) | Zone of inhibition compared to wild type Rosα [4]
1 | NGAGSGVLGTLGCCSCLPWYSGWTQCGLACNPGKPCKN (also: bicyclic or more (positions not given here)) [Roseocin V22Q, Rosα variant V22Q, modified by RosM, tested in combination with wild-type Rosβ] | > 16 µM | > 8 µM | loss of potency | – | – | – | – | –
2 | NGAGSGVLGTLGCCWCLPWYSGWTVCGLACNPGKPCKN (also: bicyclic or more (positions not given here)) [Roseocin S12W, Rosα variant S12W, modified by RosM, tested in combination with wild-type Rosβ] | > 16 µM | 0.5 µM | no improvement | – | – | – | – | –
3 | INGAGSGVLGTLGCCSCLPWYSGWTVCGLACNPGKPCKN (also: bicyclic or more (positions not given here)) [Roseocin (wild-type)] | 2 µM | 0.5 µM | – | – | – | – | – | –
4 | Nisin [reference compound] | 2 µM | 0.0625 µM | – | – | – | – | – | –
5 | GAGSGVLGTWGCCSCLPWYSGWTVCGLACNPGKPCKN (also: bicyclic or more (positions not given here)) [Roseocin L8W, Rosα variant L8W, modified by RosM, tested in combination with wild-type Rosβ] | 2 µM | 0.25 µM | improvement in the MIC | two-fold lower MIC | significantly improved inhibitory activity | – | – | –
6 | NGAGSGVLGTFGCCSCLPWYSGWTVCGLACNPGKPCKN (also: bicyclic or more (positions not given here)) [Roseocin L8F, Rosα variant L8F, modified by RosM, tested in combination with wild-type Rosβ] | 0.5 µM | 0.5 µM | improvement in the MIC | – | – | four-fold lower MIC | significantly improved inhibitory activity | improved significantly
